The record followed here is US20260306640A1, “TECHNOLOGIES TARGETING CELL STATES” (Auron Therapeutics, Inc., priority 2023, published 2026).

Each structure is given as a SMILES string. Some results are limits rather than exact numbers.

For experiment [1], the system named is small cell lung cancer cells, e.g., NCI-H1048 cells. Nature of the experiment: Differentiation GSEA signatures from RNA-Seq, NCI-H1048. The format is cell-based, human. Conditions: NCI-H1048, FIG. 1. Here is the method: In some embodiments, GSEA signatures are utilized for assessing cell states, differentiation, etc. In some assessments, differentiation GSEA signatures, e.g., from RNA-Seq was performed. A useful protocol is described herein as an example. In some assessments, LASCPC-01 cells, NEPC organoid cell pellets, or NCI-H1048 tumor pieces were flash frozen upon harvest and stored at −80° C. RNA was isolated, mRNA library was prepared (poly A enrichment) and sequencing was run. Reads were aligned to reference v38 using Kallis to generate gene count matrices for each sample. The gene count matrix was the input to the ML pipelines that generate normal atlas scores and cell state classification. It was also input to differential expression analysis using Edger in R. The output of differential expression was input to gene set enrichment analysis (GSEA) to define gene sets that were most shifted by treatment. For defining specific epithelial differentiation endpoints to generate the solid tumor differentiation box plots, cell state gene sets resulting from GSEA are consolidated by cell state to define a consensus set of genes that define epithelial differentiation. Other suitable technologies may also utilized in accordance with the present disclosure.

The target of experiment [2] is KAT2B (Homo sapiens, UniProt Q92831). Briefly: Western blot of KAT2B level in NCI-H1048 cells, 24 h. Conditions: various concentrations, FIG. 1 (B). The format is cell-based. Details: degrader, Western blot. Here is the method:
FIG. 1. Provided compounds can provide various activities including inhibiting tumor growth in vivo. (A): Provided compounds can inhibit tumor growth in vivo. Nude Balb/c mice were inoculated with NCI-H1048 cells in Matrigel. Tumors were allowed to grow up to about 200 mm^3 and mice were then randomized into two groups. Mice were dosed intraperitoneally (i.p.) once per week with vehicle or 30 mg/kg compound 22. Tumor size was measured every three to four days and mice were sacrificed once vehicle tumors reached 2000 mm^3. Error bar is SEM. Dosing started at day 17 post tumor inoculation. (B): Provided technologies can reduce KAT2A and KAT2B levels and histone acetylation levels. […] Vehicle is DMSO. […] Cell count data relative to DMSO control after 8 days of treatment with compound 22 are presented as examples to confirm inhibition. GI50=6 nM. (D): Provided technologies can inhibit tumor growth in vivo. Nude balb/c mice inoculated with H1048 tumors were dosed intraperitoneally once per week (qw i.p.) with vehicle (HbCD) or compound 22. Average tumor volumes+/−SEM from 6 mice are represented. […] See also (A). […] Certain body weights relative to starting weight are presented as examples to confirm tolerability and safety. (F): Provided technologies can reduce KAT2A and KAT2B levels and histone acetylation levels in tumor in vivo. […]

Experiment [3] has as its target T1, KAT2A (Homo sapiens, UniProt Q92830). Nature of the experiment: KAT2A reduction in LASCPC-01 cells. Also on record: degrader, Western blot. The format is cell-based. Here is the method: MOLM-13 cells or NCI-H1048 cells were washed with PBS, then lysed with RIPA buffer containing 1×protease and phosphatase inhibitors (SantaCruz Biotechnologies Cat #sc-24948A). Protein was isolated by centrifugation at 12,000×g for 10 minutes at 4° C. and supernatant was collected. Protein was quantified via Bradford assay. Samples were diluted to 4 μg lysate in 16 μL RIPA buffer and then 4 μL of Jess Sample Buffer. Samples were heated at 95° C. for 5 minutes. Samples were loaded onto 12-230 kDa Jess™ Separation Module, 8×25 capillary cartridges (SM-W004, Biotechne). Antibodies loaded were: Primary antibody for KAT2A (GCN5L2 (C26A10) Rabbit mAb (3305, CST)) and for KAT2B (PCAF (C14G9)) Rabbit mAb (3378, CST) at 1:1000 and Anti-Rabbit Detection Module for Jess™ (Cat No #DM-001, Biotechne). Signal was detected by chemiluminescence.
In some embodiments, assessment was performed in LASCPC-01 cells, and reduction of KAT2A and KAT2B levels, including in some cases selectivity for one over the other, was confirmed. In some embodiments, DC50 and/or DC90 were assessed. In some embodiments, DC50 for various compounds was about or no more than about 1 nM. In some embodiments, DC90 for various compounds was about or no more than about 1 nM. In some embodiments, selectivity for the same polypeptide by a compound was observed across multiple types of cells (e.g., when assessed using DC50 and/or DC90). In some embodiments, certain compounds can provide improved properties and/or activities (e.g., potency). Data from certain assessments for certain compounds are presented below as examples (NT: not tested). It has been confirmed that various compounds described herein, including multiple compounds in Table 1, can be deemed to provide further improved properties and/or activities compared to the compound(s) in the table below for certain contexts, aspects, and/or uses.

The target in experiment [4] is T1, KAT2A. Nature of the experiment: KAT2A degradation, Western Blot (Jess), NCI-H1048 cells. Format: cell-based. Details: degrader, Western blot (Jess). In a few lines: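 NCI-H1048 cells grown in HITES medium with 5% FBS were treated with compounds for 24 h at 37° C. Lysates were run by capillary Western (Jess) with KAT2A or KAT2B antibodies and chemiluminescent detection. DC50 derived from percent protein reduction versus DMSO control.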

T1 sequence (Q92830 whole entry): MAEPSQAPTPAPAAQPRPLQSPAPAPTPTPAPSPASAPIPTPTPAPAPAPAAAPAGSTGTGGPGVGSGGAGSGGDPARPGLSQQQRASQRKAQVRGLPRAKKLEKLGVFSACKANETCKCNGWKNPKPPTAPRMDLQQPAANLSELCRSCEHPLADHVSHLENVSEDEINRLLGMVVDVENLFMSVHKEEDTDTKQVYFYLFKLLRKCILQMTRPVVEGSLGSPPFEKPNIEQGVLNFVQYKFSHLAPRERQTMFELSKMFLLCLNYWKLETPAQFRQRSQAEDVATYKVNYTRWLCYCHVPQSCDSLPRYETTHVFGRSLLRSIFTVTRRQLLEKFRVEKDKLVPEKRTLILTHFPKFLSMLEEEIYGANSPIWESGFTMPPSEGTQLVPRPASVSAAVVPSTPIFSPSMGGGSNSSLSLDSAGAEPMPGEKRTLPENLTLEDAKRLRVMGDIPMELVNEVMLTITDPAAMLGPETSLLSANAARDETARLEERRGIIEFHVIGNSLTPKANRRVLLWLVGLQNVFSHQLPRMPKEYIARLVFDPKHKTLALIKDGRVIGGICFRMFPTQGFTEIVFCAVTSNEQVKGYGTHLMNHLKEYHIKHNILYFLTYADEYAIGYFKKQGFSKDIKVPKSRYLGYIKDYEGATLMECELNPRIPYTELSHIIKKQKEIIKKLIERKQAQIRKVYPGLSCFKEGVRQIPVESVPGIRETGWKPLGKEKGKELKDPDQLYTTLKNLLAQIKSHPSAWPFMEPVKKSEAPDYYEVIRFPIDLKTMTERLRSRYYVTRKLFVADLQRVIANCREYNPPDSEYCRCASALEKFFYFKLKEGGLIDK
KAT2B, sequence (Q92831 whole entry): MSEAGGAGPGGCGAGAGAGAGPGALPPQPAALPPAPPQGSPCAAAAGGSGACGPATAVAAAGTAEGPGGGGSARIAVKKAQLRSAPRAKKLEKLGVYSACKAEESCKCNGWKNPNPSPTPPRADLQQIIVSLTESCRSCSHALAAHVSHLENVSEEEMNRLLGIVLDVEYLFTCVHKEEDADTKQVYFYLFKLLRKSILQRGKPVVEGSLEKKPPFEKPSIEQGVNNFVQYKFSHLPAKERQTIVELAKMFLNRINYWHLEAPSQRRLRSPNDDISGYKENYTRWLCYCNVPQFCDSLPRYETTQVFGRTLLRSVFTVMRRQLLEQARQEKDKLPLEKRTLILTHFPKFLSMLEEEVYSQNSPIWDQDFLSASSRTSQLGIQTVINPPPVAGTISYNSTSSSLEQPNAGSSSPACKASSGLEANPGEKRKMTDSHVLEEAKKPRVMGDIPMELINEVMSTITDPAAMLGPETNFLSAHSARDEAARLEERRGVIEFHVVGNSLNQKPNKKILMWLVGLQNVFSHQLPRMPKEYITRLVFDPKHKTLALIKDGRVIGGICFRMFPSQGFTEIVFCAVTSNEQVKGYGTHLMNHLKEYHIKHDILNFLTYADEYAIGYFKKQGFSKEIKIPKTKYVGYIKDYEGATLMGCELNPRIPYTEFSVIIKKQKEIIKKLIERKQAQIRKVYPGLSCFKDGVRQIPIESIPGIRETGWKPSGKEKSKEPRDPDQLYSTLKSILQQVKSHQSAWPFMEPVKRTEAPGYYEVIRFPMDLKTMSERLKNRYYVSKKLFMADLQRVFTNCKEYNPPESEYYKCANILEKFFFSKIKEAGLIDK

Turning to `CN1C[C@H](Nc2cnn(C)c(=O)c2Br)C[C@H](c2ccc(C(=O)N3CCC(CN4CCN(c5ccc6c(c5)CN(C5CCC(=O)NC5=O)C6=O)CC4)CC3)cc2)C1` (stereo partly drawn) [Compound 22, 3-(5-(4-((1-(4-((3R,5R)-5-((5-bromo-1-methyl-6-oxo-1,6-dihydropyridazin-4-yl)amino)-1-methylpiperidin-3-yl)benzoyl)piperidin-4-yl)methyl)piperazin-1-yl)-1-oxoisoindolin-2-yl)piperidine-2,6-dione], the induction of differentiation result in experiment [1] is “induce differentiation (e.g., epithelial, neural, and/or microglial)”. Also, in experiment [2], the “reduction of KAT2B level” value is on record as “confirm such reduction”. Further, the DC50 in experiment [3] (LASCPC-01, KAT2A) is 0.06 nM; in experiment [4] (NCI-H1048, KAT2A, read-out: DC50), 0.01 nM; in experiment [4] (NCI-H1048 cells, KAT2A, 24 h, Western Blot, vs DMSO, read-out: KAT2A NCI-H1048 DC50), < 1 nM. The EC90 in experiment [3] (LASCPC-01, KAT2A, read-out: DC90 (the source's name)) is 0.67 nM; in experiment [4] (24 h, NCI-H1048, KAT2A, read-out: DC90 (the source's name)), 0.29 nM. The KAT2A levels result in experiment [3] (LASCPC-01 cells, FIG. 3) is “potently reduce KAT2A and KAT2B levels”; in experiment [4] (NCI-H1048 cells, FIG. 1) it was “potently reduce KAT2A and KAT2B levels”.
